This passage reports Dmax and DC50 results from patent US20250114345A1, “COMPOUNDS AND COMPOSITIONS AS CBP/P300 DEGRADERS AND USES THEREOF” (Oncopia Therapeutics, Inc. d/b/a/ SK Life Science Labs, priority 2023, published 2025).

In general, Dmax refers to the largest share of the target that was removed. Low readings indicate a partial loss of target, high ones a fuller loss of target. As usually defined, the DC50 is the midpoint of the concentration-degradation curve.

In this test the target is T1, p300 (Homo sapiens, UniProt Q09472).
T1 construct: host or cells: A549 P300 HiBit cells
T1 sequence (Q09472 whole entry): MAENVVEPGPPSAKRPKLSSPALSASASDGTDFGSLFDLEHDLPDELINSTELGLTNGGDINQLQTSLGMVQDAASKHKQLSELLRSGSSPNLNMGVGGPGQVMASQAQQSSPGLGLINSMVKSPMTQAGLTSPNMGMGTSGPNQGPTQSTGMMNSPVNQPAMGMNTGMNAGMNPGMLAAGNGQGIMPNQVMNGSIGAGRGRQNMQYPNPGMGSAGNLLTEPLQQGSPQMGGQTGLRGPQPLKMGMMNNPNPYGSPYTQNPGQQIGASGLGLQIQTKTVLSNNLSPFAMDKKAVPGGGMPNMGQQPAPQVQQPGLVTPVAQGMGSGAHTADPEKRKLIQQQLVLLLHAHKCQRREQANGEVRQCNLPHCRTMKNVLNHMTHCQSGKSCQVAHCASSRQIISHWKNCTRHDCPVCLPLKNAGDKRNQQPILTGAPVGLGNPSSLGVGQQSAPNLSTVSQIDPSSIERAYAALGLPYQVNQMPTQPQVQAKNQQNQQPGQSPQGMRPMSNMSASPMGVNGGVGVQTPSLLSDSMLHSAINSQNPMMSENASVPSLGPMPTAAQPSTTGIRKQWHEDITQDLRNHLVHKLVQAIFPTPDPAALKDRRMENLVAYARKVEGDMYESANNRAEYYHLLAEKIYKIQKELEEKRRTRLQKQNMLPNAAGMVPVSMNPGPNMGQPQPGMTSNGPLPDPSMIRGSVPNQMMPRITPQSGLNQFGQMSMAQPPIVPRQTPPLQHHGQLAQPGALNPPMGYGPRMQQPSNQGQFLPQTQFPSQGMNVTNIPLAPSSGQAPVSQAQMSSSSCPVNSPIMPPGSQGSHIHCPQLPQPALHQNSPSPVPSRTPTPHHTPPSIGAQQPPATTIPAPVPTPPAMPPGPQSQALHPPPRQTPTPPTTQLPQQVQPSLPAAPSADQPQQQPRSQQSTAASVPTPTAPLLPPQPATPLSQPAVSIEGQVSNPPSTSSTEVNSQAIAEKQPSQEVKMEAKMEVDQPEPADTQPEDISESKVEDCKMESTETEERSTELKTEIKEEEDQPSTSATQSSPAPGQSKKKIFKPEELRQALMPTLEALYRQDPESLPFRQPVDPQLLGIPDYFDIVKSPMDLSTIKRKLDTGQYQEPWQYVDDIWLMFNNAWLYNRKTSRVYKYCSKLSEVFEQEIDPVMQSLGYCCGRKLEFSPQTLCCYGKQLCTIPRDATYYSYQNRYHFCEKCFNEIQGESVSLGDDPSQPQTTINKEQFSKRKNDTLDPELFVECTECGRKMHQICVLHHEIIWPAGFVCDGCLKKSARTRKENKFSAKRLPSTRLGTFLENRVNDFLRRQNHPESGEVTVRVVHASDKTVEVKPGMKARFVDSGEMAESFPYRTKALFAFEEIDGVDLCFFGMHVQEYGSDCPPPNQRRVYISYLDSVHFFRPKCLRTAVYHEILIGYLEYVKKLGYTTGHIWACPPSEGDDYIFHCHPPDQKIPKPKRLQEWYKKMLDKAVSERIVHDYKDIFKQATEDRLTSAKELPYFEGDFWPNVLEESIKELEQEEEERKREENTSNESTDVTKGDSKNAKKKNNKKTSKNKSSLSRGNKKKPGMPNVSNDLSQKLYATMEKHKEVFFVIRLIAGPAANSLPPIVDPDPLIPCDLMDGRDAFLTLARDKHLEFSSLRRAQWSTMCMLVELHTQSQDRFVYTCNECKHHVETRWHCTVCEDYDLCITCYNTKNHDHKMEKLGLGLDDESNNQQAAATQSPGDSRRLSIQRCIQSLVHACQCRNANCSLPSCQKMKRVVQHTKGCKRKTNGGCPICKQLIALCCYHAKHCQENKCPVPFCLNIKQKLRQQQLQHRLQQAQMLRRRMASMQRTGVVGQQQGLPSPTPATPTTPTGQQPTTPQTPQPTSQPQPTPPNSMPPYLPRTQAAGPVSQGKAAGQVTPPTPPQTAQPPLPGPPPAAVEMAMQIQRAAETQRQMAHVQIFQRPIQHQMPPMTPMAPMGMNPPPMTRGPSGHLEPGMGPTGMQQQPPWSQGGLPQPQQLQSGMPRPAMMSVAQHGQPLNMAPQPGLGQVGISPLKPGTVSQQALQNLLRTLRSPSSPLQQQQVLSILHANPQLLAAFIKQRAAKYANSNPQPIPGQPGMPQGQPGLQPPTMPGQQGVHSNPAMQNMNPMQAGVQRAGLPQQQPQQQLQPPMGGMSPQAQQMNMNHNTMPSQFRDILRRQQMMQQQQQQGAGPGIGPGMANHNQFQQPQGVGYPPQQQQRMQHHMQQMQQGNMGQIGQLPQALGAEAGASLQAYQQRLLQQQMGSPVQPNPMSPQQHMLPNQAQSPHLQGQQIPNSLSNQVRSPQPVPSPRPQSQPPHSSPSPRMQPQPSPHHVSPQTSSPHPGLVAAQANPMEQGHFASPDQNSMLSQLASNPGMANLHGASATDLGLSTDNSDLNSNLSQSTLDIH
Put plainly: P300 degradation, HiBit technology in A549 P300 HiBit cells (2 h). It counts as cell-based. To be noted: 2 hrs post treatment; for Dmax: A549, A549 P300 HiBit cells; for DC50: A549 P300 HiBit cells. An outline of the steps:
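A549 HiBiT knock-in cells seeded overnight at 37 °C, 5% CO2 in F-12K with 10% heat-inactivated FBS, then given serial dilutions of compound from 10 mM DMSO stocks. Lytic HiBiT detection reagent added for 10 min at room temperature; luminescence read. Potency and Dmax reported.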

SMILES strings stand for the structures. A value given as a limit tells only on which side of the number the result lay.

Regarding `CC(C)c1cc(N2CCC(F)(F)c3cc(-c4ccc(C(=O)NCC#Cc5ccc6occ(C7CCC(=O)NC7=O)c6c5)nc4)ccc32)cc2c1n(C)c(=O)n2C` (stereo not drawn) [Example A142, 5-(4,4-difluoro-1-(7-isopropyl-1,3-dimethyl-2-oxo-2,3-dihydro-1H-benzo[d]imidazol-5-yl)-1,2,3,4-tetrahydroquinolin-6-yl)-N-(3-(3-(2,6-dioxopiperidin-3-yl)benzofuran-5-yl)prop-2-yn-1-yl)picolinamide], the Dmax was over 80% and the DC50 is 10 to 99 nM.
On the same counts, the results for `Cc1cc(-c2ncc(N(C)c3cc(C4CCN(C)CC4)c4c(c3)n(C)c(=O)n4C)cn2)cnc1C(=O)NCC#Cc1ccc2occ(C3CCC(=O)NC3=O)c2c1` (stereo not drawn) [Example A112, 5-(5-((1,3-dimethyl-7-(1-methylpiperidin-4-yl)-2-oxo-2,3-dihydro-1H-benzo [d]imidazol-5-yl)(methyl)amino)pyrimidin-2-yl)-N-(3-(3-(2,6-dioxopiperidin-3-yl)benzofuran-5-yl)prop-2-yn-1-yl)-3-methylpicolinamide] are over 80% and 1 to 9.9 nM.
Compound `Cc1cc2c(N3CCOc4cc(-c5ccc(C(=O)NCC#Cc6ccc7occ(C8CCC(=O)NC8=O)c7c6)nc5)c(F)cc43)cc(C(C)C)cc2n(C)c1=O` (stereo not drawn) [Example B91, N-(3-(3-(2,6-dioxopiperidin-3-yl)benzofuran-5-yl)prop-2-yn-1-yl)-5-(6-fluoro-4-(7-isopropyl-1,3-dimethyl-2-oxo-1,2-dihydroquinolin-5-yl)-3,4-dihydro-2H-benzo[b][1,4]oxazin-7-yl)picolinamide] displayed a Dmax of over 80% and a DC50 of 10 to 99 nM.
Regarding `Cc1cc(-c2ncc(N(C)c3cc(C4CCOCC4)c4c(c3)n(C)c(=O)n4C)nn2)cnc1C(=O)NCC#Cc1ccc2occ(C3CCC(=O)NC3=O)c2c1` (stereo not drawn) [Example A90, 5-(6-((1,3-dimethyl-2-oxo-7-(tetrahydro-2H-pyran-4-yl)-2,3-dihydro-1H-benzo[d]imidazol-5-yl)(methyl)amino)-1,2,4-triazin-3-yl)-N-(3-(3-(2,6-dioxopiperidin-3-yl)benzofuran-5-yl)prop-2-yn-1-yl)-3-methylpicolinamide], the Dmax is under 20% and the DC50 was in the range of 1 to 9.9 nM.
Consider `Cc1cc(-c2ncc(N(C)c3cc(C(C)C)c4c(c3)n(C)c(=O)n4C)cc2F)cnc1C(=O)NCC#Cc1ccc2occ(C3CCC(=O)NC3=O)c2c1` (stereo not drawn) [Example A153, N-(3-(3-(2,6-dioxo-piperidin-3-yl)benzofuran-5-yl)prop-2-yn-1-yl)-3-fluoro-5-((7-iso-propyl-1,3-dimethyl-2-oxo-2,3-dihydro-1H-benzo[d]imidazol-5-yl)(methyl)amino)-5′-methyl-[2,3′-bipyridine]-6′-carboxamide], for which the Dmax is over 80% and the DC50 lay in the range of 1 to 9.9 nM.
Turning to `Cc1cc(-c2ncc(N(C)c3cc4c(c(C(C)C)n3)n(C)c(=O)n4C)cn2)cnc1C(=O)NCC#Cc1ccc2occ(C3CCC(=O)NC3=O)c2c1` (stereo not drawn) [Example A74, N-(3-(3-(2,6-dioxopiperidin-3-yl)benzofuran-5-yl)prop-2-yn-1-yl)-5-(5-((4-isopropyl-1,3-dimethyl-2-oxo-2,3-dihydro-1H-imidazo[4,5-c]pyridin-6-yl)(methyl)amino)pyrimidin-2-yl)-3-methylpicolinamide], the Dmax is under 20% and the DC50 is over 1000 nM.
On the same counts, the results for `Cc1cc(-c2ncc(N(C)c3cc(C4CCOCC4)c4c(c3)n(C)c(=O)n4C)cn2)cnc1C(=O)NCC#Cc1cc2c(C3CCC(=O)NC3=O)nccc2o1` (stereo not drawn) [Example A168, 5-(5-((1,3-dimethyl-2-oxo-7-(tetrahydro-2H-pyran-4-yl)-2,3-dihydro-1H-benzo[d]imidazol-5-yl)(methyl)amino)pyrimidin-2-yl)-N-(3-(4-(2,6-dioxopiperidin-3-yl)furo[3,2-c]pyridin-2-yl)prop-2-yn-1-yl)-3-methylpicolinamide] are over 80% and 1 to 9.9 nM.
Turning to `Cn1cc(-c2ccc3c(c2)n(C)c(=O)n3C)c2cnc(-c3ccc(C(=O)NCC#Cc4cc5c(C6CCC(=O)NC6=O)nccc5o4)nc3)cc2c1=O` (stereo not drawn) [Example A230, 5-(8-(1,3-dimethyl-2-oxo-2,3-dihydro-1H-benzo[d]imidazol-5-yl)-6-methyl-5-oxo-5,6-dihydro-2,6-naphthyridin-3-yl)-N-(3-(4-(2,6-dioxopiperidin-3-yl)furo[3,2-c]pyridin-2-yl)prop-2-yn-1-yl)picolinamide], the greatest degradation seen (Dmax) is over 80% and the DC50 lay in the range of 1 to 9.9 nM.
On to `CCc1cc(N2CCOc3cc(-c4ccc(C(=O)NCC#Cc5ccc6occ(C7CCC(=O)NC7=O)c6c5)nc4)c(F)cc32)c2cc(C)c(=O)n(C)c2c1` (stereo not drawn) [Example B149, N-(3-(3-(2,6-dioxopiperidin-3-yl)benzofuran-5-yl)prop-2-yn-1-yl)-5-(4-(7-ethyl-1,3-dimethyl-2-oxo-1,2-dihydroquinolin-5-yl)-6-fluoro-3,4-dihydro-2H-benzo[b][1,4]oxazin-7-yl)picolinamide], for which the Dmax is over 80% and the DC50 was in the range of 1 to 9.9 nM.
For `Cn1c(=O)n(C)c2cc(N3CC(C)(C)Oc4nc(-c5ccc(C(=O)NCC#Cc6cc7c(C8CCC(=O)NC8=O)cccc7o6)nc5)ncc43)ccc21` (stereo not drawn) [Example A264, 5-(5-(1,3-dimethyl-2-oxo-2,3-dihydro-1H-benzo[d]imidazol-5-yl)-7,7-dimethyl-6,7-dihydro-5H-pyrimido [4,5-b][1,4]oxazin-2-yl)-N-(3-(4-(2,6-dioxopiperidin-3-yl)benzofuran-2-yl)prop-2-yn-1-yl)picolinamide], in that order: over 80% and 1 to 9.9 nM.
Take `CC(C#Cc1ccc2occ(C3CCC(=O)NC3=O)c2c1)NC(=O)c1ccc(-c2ncc(N(C)c3cc(C(C)C)c4c(c3)n(C)c(=O)n4C)cn2)cn1` (stereo not drawn) [Example A105, N-(4-(3-(2,6-dioxo-piperidin-3-yl)benzofuran-5-yl)but-3-yn-2-yl)-5-(5-((7-isopropyl-1,3-dimethyl-2-oxo-2,3-dihydro-1H-benzo [d]imidazol-5-yl)(methyl)amino)pyrimidin-2-yl)picolinamide]: the Dmax was under 20% and the DC50 is over 1000 nM.
Compound `Cc1cc(-c2ccc(N(C)c3cc(C(C)C)c4c(c3)n(C)c(=O)n4C)cc2)cnc1C(=O)NCC#Cc1cccc(NC2CCC(=O)NC2=O)c1` (stereo not drawn) [Example A43, N-(3-(3-((2,6-dioxopiperidin-3-yl)amino)phenyl)prop-2-yn-1-yl)-5-(4-((7-isopropyl-1,3-dimethyl-2-oxo-2,3-dihydro-1H-benzo [d]imidazol-5-yl) (methyl)amino)phenyl)-3-methylpicolinamide] returned a Dmax of 60 to 79% and a DC50 of 100 to 999 nM.
Compound `Cc1cc(N2CCN(C)c3nc(-c4ccc(C(=O)NCC#Cc5cc6c(C7CCC(=O)NC7=O)nccc6o5)nc4)ncc32)cc2c1n(C)c(=O)n2C` (stereo not drawn) [Example A220, N-(3-(4-(2,6-dioxo-piperidin-3-yl)furo[3,2-c]pyridin-2-yl)prop-2-yn-1-yl)-5-(8-methyl-5-(1,3,7-trimethyl-2-oxo-2,3-dihydro-1H-benzo [d]imidazol-5-yl)-5,6,7,8-tetrahydro-pteridin-2-yl)picolinamide] had a Dmax of over 80% and a DC50 of 1 to 9.9 nM.
For `Cc1cc(N2CCCc3nc(-c4ccc(C(=O)NCC#Cc5cc6c(C7CCC(=O)NC7=O)nccc6o5)nc4)ncc32)c2cc(C)c(=O)n(C)c2c1` (stereo not drawn) [Example B120, N-(3-(4-(2,6-dioxopiperidin-3-yl)furo[3,2-c]pyridin-2-yl)prop-2-yn-1-yl)-5-(5-(1,3,7-trimethyl-2-oxo-1,2-dihydroquinolin-5-yl)-5,6,7,8-tetrahydropyrido[3,2-d]pyrimidin-2-yl) picolinamide], in that order: over 80% and 1 to 9.9 nM.
For `Cc1cc(N2CCN(C)c3cc(-c4ccc(C(=O)NCC#Cc5cc6c(C7CCC(=O)NC7=O)cccc6o5)nc4)ncc32)c2cc(C)c(=O)n(C)c2c1` (stereo not drawn) [Example B40, N-(3-(4-(2,6-dioxopiperidin-3-yl)benzofuran-2-yl)prop-2-yn-1-yl)-5-(1-methyl-4-(1,3,7-trimethyl-2-oxo-1,2-dihydroquinolin-5-yl)-1,2,3,4-tetrahydropyrido[3,4-b]pyrazin-7-yl) picolinamide], the Dmax is over 80% and the DC50 was under 1 nM.
On the same counts, the results for `[2H]C([2H])([2H])N(c1cnc(-c2cnc(C(=O)NCC#Cc3ccc4occ(C5CCC(=O)NC5=O)c4c3)c(C)c2)nc1)c1cc(C2CCOCC2)c2c(c1)n(C)c(=O)n2C` (stereo not drawn) [Example A82, 5-(5-((1,3-dimethyl-2-oxo-7-(tetrahydro-2H-pyran-4-yl)-2,3-dihydro-1H-benzo [d]imidazol-5-yl) (methyl-d3)amino)pyrimidin-2-yl)-N-(3-(3-(2,6-dioxo-piperidin-3-yl)benzofuran-5-yl)prop-2-yn-1-yl)-3-methylpicolinamide] are over 80% and 1 to 9.9 nM.
For `Cc1cc(-c2ccc(N(C)c3cc(C(C)C)c4c(c3)n(C)c(=O)n4C)cn2)cnc1C(=O)NCC#Cc1ccc2occ(C3CCC(=O)NC3=O)c2c1` (stereo not drawn) [Example A141, N-(3-(3-(2,6-dioxo-piperidin-3-yl)benzofuran-5-yl)prop-2-yn-1-yl)-5-((7-isopropyl-1,3-dimethyl-2-oxo-2,3-dihydro-1H-benzo [d]imidazol-5-yl)(methyl)amino)-5′-methyl-[2,3′-bipyridine]-6′-carboxamide], in that order: over 80% and 1 to 9.9 nM.
For `Cn1c(=O)n(C)c2c(N3CCOCC3)nc(-c3cccc4cc(-c5ccc(C(=O)NCC#Cc6cc7c(C8CCC(=O)NC8=O)nccc7o6)nc5)ncc34)cc21` (stereo not drawn) [Example A206, 5-(8-(1,3-dimethyl-4-morpholino-2-oxo-2,3-dihydro-1H-imidazo[4,5-c]pyridin-6-yl)isoquinolin-3-yl)-N-(3-(4-(2,6-dioxopiperidin-3-yl)furo[3,2-c]pyridin-2-yl)prop-2-yn-1-yl)picolinamide], the Dmax was over 80% and the DC50 is under 1 nM.
